In series [1] the target is hERG channel (Homo sapiens (Human), UniProt Q12809). The series can be described thus: hERG assay using IonWorks Quattro. Format: cell-based. As to conditions: IonWorks protocol; read-out: IW hERG IC50. Here is the method:
Example 127A, Using IonWorks Quattro
Solutions for recording hERG currents were:
This was followed by a […] step of is to −30 mV to evoke the hERG tail current. This sequence was repeated 5 times at a frequency of 0.25 Hz (see FIG. 3). Currents were measured from the tail step at the 5th pulse and referenced to the holding current. Compounds were then incubated for 6-7 minutes prior to a second measurement of the hERG signal using an identical pulse train.

The target of series [2] is hNav1.5 (Homo sapiens (Human), UniProt Q14524).
Chain of hNav1.5 (Q14524 whole entry): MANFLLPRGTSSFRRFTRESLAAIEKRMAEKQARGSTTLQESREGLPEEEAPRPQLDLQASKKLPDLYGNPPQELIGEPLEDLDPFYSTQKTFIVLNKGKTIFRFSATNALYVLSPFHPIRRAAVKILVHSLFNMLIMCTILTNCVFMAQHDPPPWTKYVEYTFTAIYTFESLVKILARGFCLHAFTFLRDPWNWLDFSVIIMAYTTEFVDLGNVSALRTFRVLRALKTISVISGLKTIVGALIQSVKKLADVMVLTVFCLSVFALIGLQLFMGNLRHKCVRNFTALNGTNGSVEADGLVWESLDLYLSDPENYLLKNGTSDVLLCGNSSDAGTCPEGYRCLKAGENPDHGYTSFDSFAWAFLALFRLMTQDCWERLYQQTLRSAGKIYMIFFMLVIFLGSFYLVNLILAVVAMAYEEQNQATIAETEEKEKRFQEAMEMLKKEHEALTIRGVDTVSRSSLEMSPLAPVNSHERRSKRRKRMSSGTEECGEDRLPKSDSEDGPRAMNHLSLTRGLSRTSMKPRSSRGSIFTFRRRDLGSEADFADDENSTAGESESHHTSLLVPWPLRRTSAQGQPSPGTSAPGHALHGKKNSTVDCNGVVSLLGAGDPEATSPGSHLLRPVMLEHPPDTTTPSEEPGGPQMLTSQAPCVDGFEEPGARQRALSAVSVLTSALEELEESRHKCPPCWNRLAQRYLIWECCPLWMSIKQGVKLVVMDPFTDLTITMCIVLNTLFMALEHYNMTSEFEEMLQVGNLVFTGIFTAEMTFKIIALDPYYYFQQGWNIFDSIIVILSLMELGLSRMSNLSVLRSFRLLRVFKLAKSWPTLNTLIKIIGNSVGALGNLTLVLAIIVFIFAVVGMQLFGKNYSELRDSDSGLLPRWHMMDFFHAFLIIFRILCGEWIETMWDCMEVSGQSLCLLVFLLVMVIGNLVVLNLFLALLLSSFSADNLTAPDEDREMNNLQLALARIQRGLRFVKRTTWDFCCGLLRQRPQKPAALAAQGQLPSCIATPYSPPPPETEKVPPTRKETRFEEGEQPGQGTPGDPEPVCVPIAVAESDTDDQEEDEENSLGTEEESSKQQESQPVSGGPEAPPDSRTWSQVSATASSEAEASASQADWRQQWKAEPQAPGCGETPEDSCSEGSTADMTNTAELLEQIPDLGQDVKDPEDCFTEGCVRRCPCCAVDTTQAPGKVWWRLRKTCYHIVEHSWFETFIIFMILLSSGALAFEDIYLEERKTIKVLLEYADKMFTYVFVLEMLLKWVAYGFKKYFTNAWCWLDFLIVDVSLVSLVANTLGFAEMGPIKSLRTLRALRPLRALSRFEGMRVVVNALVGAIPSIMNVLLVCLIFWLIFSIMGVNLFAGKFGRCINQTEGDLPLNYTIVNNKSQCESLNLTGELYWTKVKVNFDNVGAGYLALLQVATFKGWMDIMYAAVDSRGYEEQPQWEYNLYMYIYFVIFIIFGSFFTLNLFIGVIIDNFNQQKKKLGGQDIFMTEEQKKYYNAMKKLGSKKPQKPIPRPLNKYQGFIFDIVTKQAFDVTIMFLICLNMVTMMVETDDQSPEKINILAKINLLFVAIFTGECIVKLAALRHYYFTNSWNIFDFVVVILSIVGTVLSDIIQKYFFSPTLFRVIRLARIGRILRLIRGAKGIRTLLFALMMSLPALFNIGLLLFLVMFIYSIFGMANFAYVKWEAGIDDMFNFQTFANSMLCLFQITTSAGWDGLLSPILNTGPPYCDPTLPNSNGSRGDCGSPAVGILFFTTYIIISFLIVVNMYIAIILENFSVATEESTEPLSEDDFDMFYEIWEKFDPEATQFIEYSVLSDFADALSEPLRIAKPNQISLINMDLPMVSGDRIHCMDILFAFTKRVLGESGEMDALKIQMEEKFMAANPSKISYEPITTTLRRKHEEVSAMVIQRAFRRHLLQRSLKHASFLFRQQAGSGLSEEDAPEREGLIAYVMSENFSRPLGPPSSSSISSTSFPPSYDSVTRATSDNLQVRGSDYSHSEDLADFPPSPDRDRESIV
Series [3] addresses HCN4 (Homo sapiens (Human), UniProt Q9Y3Q4). Kind of series: HCN4 current assay using PatchXpress 7000A. In kind it is cell-based. As to conditions: PatchXpress protocol; read-out: PX HCN4 IC50. Here is the method: (§1) Example 126A, Using PatchXpress 7000A
(§2) Solutions for recording HCN currents were:
(§3) The peak inward current measured at the end of the pulse to −110 mV (HCN1 and HCN2) or −130 mV (HCN4) was measured and any leak current subtracted to calculate the HCN current. The HCN current amplitude was measured after each control or compound addition and normalized to the control amplitude (Control A).
(§4) All experiments were performed at room temperature (approximately 22° C.).
(§5) Each test compound concentration was applied to the cell for seven (7) minutes, at which point the next cumulative concentration was applied.

The target of series [4] is HCN2 (Homo sapiens (Human), UniProt Q9UL51). Kind of series: HCN2 current assay using PatchXpress 7000A. As to conditions: PatchXpress protocol; read-out: PX HCN2 IC50. In kind it is cell-based. How it is done:
as §1, §2
The membrane voltage was then stepped back to −30 mV for a further 8 seconds.
as §3, §4, §5

Counter-ions that a name gives are not always drawn.

Chain of hERG channel (Q12809 whole entry): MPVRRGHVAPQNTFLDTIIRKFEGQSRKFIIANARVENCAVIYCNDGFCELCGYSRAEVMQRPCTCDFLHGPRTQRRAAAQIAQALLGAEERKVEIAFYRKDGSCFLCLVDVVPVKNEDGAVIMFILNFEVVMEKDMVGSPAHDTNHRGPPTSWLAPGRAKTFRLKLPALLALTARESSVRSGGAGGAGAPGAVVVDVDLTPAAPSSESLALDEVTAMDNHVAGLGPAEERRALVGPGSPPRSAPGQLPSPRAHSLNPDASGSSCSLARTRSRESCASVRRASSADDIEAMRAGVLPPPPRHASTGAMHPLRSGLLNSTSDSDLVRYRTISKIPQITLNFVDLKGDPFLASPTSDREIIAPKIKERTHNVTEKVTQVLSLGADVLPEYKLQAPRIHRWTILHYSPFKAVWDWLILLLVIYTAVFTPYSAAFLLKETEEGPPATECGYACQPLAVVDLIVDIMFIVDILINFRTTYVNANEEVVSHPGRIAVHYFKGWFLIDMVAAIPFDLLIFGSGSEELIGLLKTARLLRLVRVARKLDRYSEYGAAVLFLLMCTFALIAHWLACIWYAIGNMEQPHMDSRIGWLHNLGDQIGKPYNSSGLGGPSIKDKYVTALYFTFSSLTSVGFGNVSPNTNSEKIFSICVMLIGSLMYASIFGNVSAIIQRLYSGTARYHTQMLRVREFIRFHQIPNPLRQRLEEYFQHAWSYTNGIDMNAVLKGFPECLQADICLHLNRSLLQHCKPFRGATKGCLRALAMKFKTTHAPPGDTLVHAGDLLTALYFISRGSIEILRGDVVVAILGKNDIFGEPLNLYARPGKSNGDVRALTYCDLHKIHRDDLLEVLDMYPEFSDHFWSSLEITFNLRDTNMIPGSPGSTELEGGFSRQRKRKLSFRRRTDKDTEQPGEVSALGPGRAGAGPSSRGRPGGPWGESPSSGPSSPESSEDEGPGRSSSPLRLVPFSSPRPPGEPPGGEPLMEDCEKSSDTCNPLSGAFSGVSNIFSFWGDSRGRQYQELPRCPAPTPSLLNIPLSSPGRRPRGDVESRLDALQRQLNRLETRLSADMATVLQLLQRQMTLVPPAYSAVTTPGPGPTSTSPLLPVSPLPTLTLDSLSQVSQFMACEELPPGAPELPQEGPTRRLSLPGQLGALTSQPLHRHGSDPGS
Chain of HCN4 (Q9Y3Q4 whole entry, species assumed): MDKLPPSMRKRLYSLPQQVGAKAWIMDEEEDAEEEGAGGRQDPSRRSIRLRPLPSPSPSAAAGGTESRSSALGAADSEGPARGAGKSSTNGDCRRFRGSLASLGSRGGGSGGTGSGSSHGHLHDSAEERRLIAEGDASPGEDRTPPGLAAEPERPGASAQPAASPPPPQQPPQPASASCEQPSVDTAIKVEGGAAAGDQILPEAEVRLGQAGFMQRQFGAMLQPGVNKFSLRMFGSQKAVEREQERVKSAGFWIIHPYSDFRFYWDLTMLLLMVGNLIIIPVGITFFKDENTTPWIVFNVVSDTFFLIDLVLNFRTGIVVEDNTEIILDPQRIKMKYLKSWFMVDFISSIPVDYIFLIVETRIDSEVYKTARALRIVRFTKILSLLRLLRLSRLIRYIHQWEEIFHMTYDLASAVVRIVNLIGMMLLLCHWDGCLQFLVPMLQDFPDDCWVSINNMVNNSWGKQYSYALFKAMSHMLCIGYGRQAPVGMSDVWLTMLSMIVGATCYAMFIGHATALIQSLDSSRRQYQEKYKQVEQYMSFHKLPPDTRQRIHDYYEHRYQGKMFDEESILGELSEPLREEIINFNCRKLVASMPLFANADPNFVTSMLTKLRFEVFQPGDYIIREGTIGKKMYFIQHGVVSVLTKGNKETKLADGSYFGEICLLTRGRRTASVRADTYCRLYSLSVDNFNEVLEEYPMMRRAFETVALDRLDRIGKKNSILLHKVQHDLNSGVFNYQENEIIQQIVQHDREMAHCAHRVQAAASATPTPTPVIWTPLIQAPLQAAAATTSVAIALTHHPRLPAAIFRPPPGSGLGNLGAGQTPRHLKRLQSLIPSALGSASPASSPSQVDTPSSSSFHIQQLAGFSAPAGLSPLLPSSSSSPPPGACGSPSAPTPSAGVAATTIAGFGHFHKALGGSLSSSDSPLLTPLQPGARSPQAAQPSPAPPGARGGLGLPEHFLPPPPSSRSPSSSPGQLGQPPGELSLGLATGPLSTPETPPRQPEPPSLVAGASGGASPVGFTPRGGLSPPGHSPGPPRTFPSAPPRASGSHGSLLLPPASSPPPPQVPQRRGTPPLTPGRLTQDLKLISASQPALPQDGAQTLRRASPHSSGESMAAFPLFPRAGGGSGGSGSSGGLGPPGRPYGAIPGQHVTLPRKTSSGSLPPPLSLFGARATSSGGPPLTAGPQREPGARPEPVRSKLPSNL

As to `Cc1ccc2c(-c3ccccc3[C@@H](N)Cc3ccccn3)noc2c1` [Example 33, (S)-1-[2-(6-Methylbenzo[d]isoxazol-3-yl)phenyl]-2-(pyridine-2-yl)ethan-1-amine], the IC50 (commonly the concentration needed to halve the response being measured) in series [1] was 4.4 µM; in series [2], 8.8 µM; in series [3], more than 30 µM; in series [4], 1.7 µM.

As to `N[C@@H](Cc1ccccn1)c1ccccc1-c1noc2cc(CCO)ccc12` [Example 40, (S)-1-[2-(6-[2-Hydroxyethyl]benzo[d]isoxazol-3-yl)phenyl]-2-(pyridine-2-yl)ethan-1-amine], the IC50 in series [1] is 7.8 µM; in series [2] it was more than 33 µM; in series [4], 15.6 µM.

Turning to `N[C@@H](Cc1cccc(Br)n1)c1ccccc1-c1noc2ccccc12` [Example 44, (S)-1-[2-(benzo[d]isoxazol-3-yl)phenyl]-2-(6-bromopyridine-2-yl)ethan-1-amine], the 50% inhibitory concentration (IC50) in series [1] came out at 12.8 µM; in series [2], 3.7 µM; in series [3], 7.2 µM; in series [4], 1.2 µM.

`CC[C@@H](c1ccccn1)[C@H](N)c1ccccc1-c1noc2ccccc12` [Example 46, (1S,2R)-1-[2-(benzo[d]isoxazol-3-yl)phenyl]-2-(pyridin-2-yl)butan-1-amine hydrochloride]: the IC50 in series [1] is 8.2 µM; in series [2] it was 1.3 µM; in series [3] it was more than 30 µM; in series [4] it was 3 µM.

Regarding `CN(CCO)c1cccc(C[C@H](N)c2ccccc2-c2noc3ccccc23)n1` [Example 55, (S)-2-[(6-{(S)-2-Amino-2-[2-(benzo[d]isoxazol-3-yl)phenyl]ethyl}pyridine-2-yl)(methyl)amino]ethan-1-ol hydrochloride], the IC50 in series [3] is 2 µM; in series [4] it was 0.8 µM.

For `Cc1ccc(Br)nc1C[C@H](N)c1ccccc1-c1noc2ccccc12` [Example 57, (S)-1-[2-(Benzo[d]isoxazol-3-yl)phenyl]-2-(6-bromo-3-methylpyridin-2-yl)ethan-1-amine hydrochloride], the values for the IC50 in series [3] and in series [4] were 2.4 µM and 0.6 µM, respectively.

Regarding `Cc1ccc(C#N)nc1C[C@H](N)c1ccccc1-c1noc2ccccc12` [Example 58, (S)-1-[2-(Benzo[d]isoxazol-3-yl)phenyl]-2-(6-cyano-3-methylpyridin-2-yl)ethan-1-amine], the results for the IC50 in series [3] and in series [4] were 7.2 µM and 0.5 µM, respectively.

Take `Cc1ccc(C)c(C[C@H](N)c2ccccc2-c2noc3ccccc23)n1` [Example 59, (S)-1-[2-(benzo[d]isoxazol-3-yl)phenyl]-2(6-vinylpyridin-2-yl)ehtan-1-amine]: the IC50 in series [3] turned out to be 6.8 µM; in series [4], 0.9 µM.

On to `CC(C)n1nc(-c2ccccc2[C@@H](N)Cc2cccc(Br)n2)c2ccccc21` [Example 64, (S)-2-(6-Bromopyridine-2-yl)-1-[2-(1-isopropyl-1H-indazole-3-yl)phenyl]ethan-1-amine hydrochloride], for which the figures for the IC50 in series [3] and in series [4] were 6.4 µM and 1.3 µM, respectively.

On to `CC(C)n1nc(-c2ccccc2[C@@H](N)Cc2ccccn2)c2ccccc21` [Example 65, (S)-1-[2-(1-isopropyl-1H-indazole-3-yl)phenyl]-2-(pyridine-2-yl)ethan-1-amine hydrochloride], for which the IC50 in series [3] is 5.1 µM; in series [4], 1.1 µM.

For `Cc1cccc(C[C@H](N)c2ccccc2-c2nn(C(C)C)c3ccccc23)n1` [Example 66, (S)-1-[2-(1-Isopropyl-1H-indazole-3-yl)phenyl]-2-(6-methylpyridine-2-yl)ethan-1-amine hydrochloride], the IC50 in series [3] is 6.8 µM; in series [4], 0.9 µM.

For the molecule `N[C@@H](Cc1nc(-c2cn[nH]c2)ccc1F)c1ccccc1-c1noc2ccccc12` [Example 78, (S)-1-[2-(Benzo[d]isoxazol-3-yl)phenyl]-2-[3-fluoro-6-(1H-pyrazol-4-yl)pyridin-2-yl)ethan-1-amine hydrochloride], the figures for the IC50 in series [1], in series [2] and in series [3] were 7.6 µM, 6.4 µM and 8.3 µM, respectively.

Regarding `N#Cc1ccc(C[C@H](N)c2ccccc2-c2noc3cc(Br)ccc23)nc1` [Example 81, (S)-1-[2-(6-Bromobenzo[d]isoxazol-3-yl)phenyl]-2-(5-cyanopyridine-2-yl)ethan-1-amine], the IC50 is more than 30 µM in series [3] and 10.8 µM in series [4].

`N[C@@H](Cc1ccccn1)c1cc(Br)ccc1-c1noc2ccccc12` [Example 83, (S)-1-[2-(benzo[d]isoxazol-3-yl)-5-bromophenyl]-2-(pyridine-2-yl)ethan-1-amine]: the results for the IC50 in series [3] and in series [4] were more than 30 µM and 1.8 µM, respectively.

As to `N[C@@H](Cc1ccccn1)c1c(Br)cccc1-c1noc2ccccc12` [Example 87, (S)-1-[2-(Benzo[d]isoxazol-3-yl)-6-bromophenyl]-2-(pyridine-2-yl)ethan-1-amine hydrochloride], the figures for the IC50 in series [3] and in series [4] were 18.8 µM and 1.7 µM, respectively.

For `N[C@@H](Cc1ccc(Br)cn1)c1ccccc1-c1noc2ccccc12` [Example 88, (S)-1-[2-(Benzo[d]isoxazol-3-yl)phenyl]-2-(5-bromopyridine-2-yl)ethan-1-amine hydrochloride], the IC50 was more than 30 µM in series [3] and 2.7 µM in series [4].

Take `Cc1noc(C)c1-c1cccc(C[C@H](N)c2ccccc2-c2noc3ccccc23)n1` [Example 94, (S)-1-[2-(Benzo[d]isoxazol-3-yl)phenyl]-2-[6-(3,5-dimethylisoxazol-4-yl)pyridine-2-yl)-ethan-1-amine hydrochloride]: the results for the IC50 in series [3] and in series [4] were 4.7 µM and 1.2 µM, respectively.

As to `Cc1cccc(C[C@H](N)c2ccccc2-c2noc3cc(C#N)ccc23)n1` [Example 96, (S)-1-[2-(6-Cyanobenzo[d]isoxazol-3-yl)phenyl]-2-(6-methylpyridine-2-yl)ethan-1-amine], the IC50 was more than 30 µM in series [3] and 2.9 µM in series [4].

Regarding `N[C@@H](Cc1cccc(CO)n1)c1ccccc1-c1noc2ccccc12` [Example 98, (S)-1-[2-(Benzo[d]isoxazol-3-yl)phenyl]-2-(6-hydroxymethylpyridine-2-yl)ethan-1-amine hydrochloride], the IC50 came out at 13.2 µM in series [3] and 2 µM in series [4].

Take `CS(=O)(=O)c1cccc(C[C@H](N)c2ccccc2-c2noc3ccccc23)n1` [Example 103, (S)-1-[2-(Benzo[d]isoxazol-3-yl)phenyl]-2-[6-(methylsulfonyl)pyridin-2-yl]ethan-1-amine]: the IC50 in series [3] stood at 22.4 µM; in series [4], 3 µM.

Take `NC(=O)c1cccc(C[C@H](N)c2ccccc2-c2noc3ccccc23)n1` [Example 104, (S)-6-{2-Amino-2-[2-(benzo[d]isoxazol-3-yl)phenyl]ethyl}pyridine-2-carboxamide hydrochloride]: the IC50 in series [3] is 10.4 µM; in series [4], 2.6 µM.

On to `CNC(=O)c1cccc(C[C@H](N)c2ccccc2-c2noc3ccccc23)n1` [Example 105, (S)-6-{2-Amino-2-[2-(benzo[d]isoxazol-3-yl)phenyl]ethyl}-N-methylpyridine-2-carboxamide hydrochloride], for which the figures for the IC50 in series [3] and in series [4] were 6.2 µM and 4.2 µM, respectively.

For `N[C@@H](Cc1cccc(C(=O)N2CCOCC2)n1)c1ccccc1-c1noc2ccccc12` [Example 106, (S)-(6-{2-Amino-2-[2-(benzo[d]isoxazol-3-yl)phenyl]ethyl}pyridine-2-yl)(morpholino)methanone hydrochloride], the IC50 in series [3] was more than 30 µM; in series [4], 8.5 µM.

For `N[C@@H](Cc1cccc(C(=O)NCC2CC2)n1)c1ccccc1-c1noc2ccccc12` [Example 107, (S)-6-{2-Amino-2-[2-(benzo[d]isoxazol-3-yl)phenyl]ethyl}-N-(cyclopropylmethylpyridine-2-carboxamide hydrochloride], the IC50 in series [3] worked out at 3.2 µM; in series [4], 1.4 µM.

In the case of `COCCNC(=O)c1cccc(C[C@H](N)c2ccccc2-c2noc3ccccc23)n1` [Example 108, (S)-6-{2-[Amino-2-(benzo[d]isoxazol-3-yl)phenyl]ethyl}-N-(2-methoxyethyl)pyridine-2-carboxamide hydrochloride], the figures for the IC50 in series [3] and in series [4] were 5.1 µM and 3.5 µM, respectively.

For the molecule `N#Cc1cccc(C[C@H](N)c2c(F)cccc2-c2noc3ccccc23)n1` [Example 110, (S)-6-{2-Amino-2-[2-(benzo[d]isoxazol-3-yl)-6-fluorophenyl]ethyl}-2-cyanopyridine hydrochloride], the 50% inhibitory concentration (IC50) in series [2] was more than 33 µM; in series [3], 15.1 µM; in series [4] it was 2.6 µM.

For the molecule `CNC(=O)Nc1cccc(C[C@H](N)c2ccccc2-c2noc3ccccc23)n1` [Example 122, (S)-1-(6-{2-Amino-2-[2-(benzo[d]isoxazol-3-yl)phenyl]ethyl}pyridine-2-yl)-3-methylurea hydrochloride], the values for the concentration for half-maximal inhibition (IC50) in series [3] and in series [4] were 28.1 µM and 9.5 µM, respectively.

As to `CS(=O)(=O)Nc1cccc(C[C@H](N)c2ccccc2-c2noc3ccccc23)n1` [Example 123, (S)—N-(6-{2-Amino-2-[2-(benzo[d]isoxazol-3-yl)phenyl]ethyl}pyridine-2-yl)methanesulfonamide hydrochloride], the IC50 is more than 30 µM in series [3] and 5.9 µM in series [4].

These data come from patent US20240190854A1, “PYRIMIDINE OR PYRIDINE DERIVATIVES USEFUL AS HCN2 MODULATORS” (King's College London, priority 2021, published 2024).
